This note sets out measurements from patent publication US20140065212A1, “COATED PHARMACEUTICAL COMPOSITION CONTAINING REGORAFENIB” (Bayer Healthcare LLC, priority 2012, published 2014).

This data set can be described thus: thermodynamic solubility of regorafenib monohydrate in different solvents. The class given is physicochemical. As to conditions: thermodynamic from solid. The source says: Furthermore salts of the compound of formula (I) such as its hydrochloride, mesylate and phenylsulfonate are mentioned in WO 2005/009961. The monohydrate of the compound of formula (I) is mentioned in WO 2008/043446. An improved process for the manufacturing of regorafenib in high purity is described in WO 2011/128261. Due to the limited solubility of regorafenib monohydrate (see table 1) an applicable pharmaceutical composition containing regorafenib is in form of a solid dispersion as described in WO 2006/026500.

With `CNC(=O)c1cc(Oc2ccc(NC(=O)Nc3ccc(Cl)c(C(F)(F)F)c3)c(F)c2)ccn1` [regorafenib monohydrate], the solubility reads like this: (aqueous with cosolvent or surfactant or cyclodextrin, solvent: HPβ-Cyclodextrin/water (10:90)) less than 100 µg/mL; (aqueous with cosolvent or surfactant or cyclodextrin, solvent: PEG 400/water (30:70)) 270 µg/mL; (light liquid paraffin, oil or lipid, solvent: Ligth liquid paraffin) less than 100 µg/mL; (oil or lipid, solvent: Oleoylpolyethylenglycol glycerides) 3600 µg/mL; (organic solvent or mixture, solvent: Ethanol) 6400 µg/mL; (organic solvent or mixture, solvent: Polyethylenglycol (PEG) 400) 67300 µg/mL. The compound further had a solubility (solvent: Water) of less than 100 µg/mL.

What is called solubility is the dissolved amount per volume that the medium holds.
